Results published in patent publication US10501748B2, “Methods and compositions for integration of an exogenous sequence within the genome of plants” (Dow AgroSciences LLC, priority 2013, dated 2019).

Assays:
[1] = system: somatic embryogenic callus of wild-type cv. Bobwhite MPB26RH; test: basal tolerance to sulfometuron methyl at the plant regeneration stage; assay type: cell-based, Triticum aestivum; settings: wild-type donor wheat line; 2000 nM; 2 weeks; compared to untreated samples
Method: The basal tolerance of the wild-type donor wheat line to sulfometuron methyl at the plant regeneration stage was determined as follows: scutella of immature zygotic embryos from the donor wheat line were isolated and placed in 10 cm petri dishes containing CIM medium. Then SEC was allowed to form by incubating at 24° C. in the dark for 4 weeks. The SEC was transferred to 10 cm petri dishes containing DRM medium supplemented with 0, 100, 500, 1000, 1500, 2000, 2500 and 3000 nM sulfometuron methyl, respectively. Twenty CIM were placed in each petri dish. A total of 60 CIM were tested for basal tolerance response at each sulfometuron methyl concentration. After incubation for 2 weeks at 24° C. under a 16/8 (light/dark) hour photoperiod in a growth room, the regeneration response was recorded.

[2] = system: transgenic wheat events with low-copy T-DNA expressing AHAS (P197S); test: basal tolerance to sulfometuron methyl at the rooting stage of transgenic AHAS (P197S) events; assay type: in vivo, Triticum aestivum; settings: transgenic AHAS (P197S) events from pDAS000164; 400-600 nM; 2 weeks
Method: The basal tolerance of transgenic wheat events with randomly integrated, low-copy (≤3) T-DNA expressing the AHAS (P197S) mutation to sulfometuron methyl from pDAS000164 at the plant rooting stage was determined as follows: four independent transgenic events were randomly selected and multiplied in vitro by sub-culturing on multiplication medium. Following multiplication, plants for each event were transferred to 10 cm petri dishes containing RM medium supplemented with 0, 400, 450, 500, 550 and 600 nM sulfometuron methyl, respectively. Four plants (one from each of the four events) were placed in each petri dish. A total of 3 plants per event were tested for basal tolerance at each sulfometuron methyl concentration. After incubation for 2 weeks at 24° C. under a 16/8 (light/dark) hour photoperiod in a growth room, the root formation response was recorded.

[3] = system: regenerated plants of wild-type cv. Bobwhite MPB26RH; test: basal tolerance to sulfometuron methyl at the plant rooting stage; assay type: in vivo, Triticum aestivum; settings: wild-type donor wheat line; 3 weeks
Method: The basal tolerance of the wild-type donor wheat line to sulfometuron methyl at the plant rooting stage was determined as follows: scutella of immature zygotic embryos were isolated and placed in 10 cm petri dishes containing CIM medium. Then SEC was allowed to form by incubating at 24° C. in the dark for 4 weeks. The SEC was transferred to 10 cm petri dishes containing DRM medium and incubated for 2 weeks at 24° C. under a 16/8 (light/dark) hour photoperiod to allow plant regeneration to take place. Regenerated plants were transferred to 10 cm petri dishes containing RM medium supplemented with 0, 100, 200, 250, 300, 400, 500, 1000 and 2000 nM sulfometuron methyl, respectively. Ten regenerated plants were placed in each petri dish. A total of 30 regenerated plants were tested for basal tolerance response at each sulfometuron methyl concentration. After incubation for 3 weeks at 24° C. under a 16/8 (light/dark) hour photoperiod in a growth room, the root formation response was recorded.

[4] = system: scutella of wild-type cv. Bobwhite MPB26RH (P197/P197); test: basal tolerance to sulfometuron methyl at the callus induction stage; assay type: cell-based, Triticum aestivum; settings: 100 nM, 4 weeks, compared to untreated samples
Method: A series of experiments were performed to determine optimal selection conditions for regenerating wheat plants expressing the AHAS (P197S) mutation conferring tolerance to sulfonylurea class herbicides. These experiments were based on testing the basal tolerance of the wild-type donor wheat line cv. Bobwhite MPB26RH (P197/P197 genotype, which confers susceptibility to sulfonylureas) at the callus induction, plant regeneration and rooting stages of an established wheat transformation system. Similar experiments were performed to determine the basal tolerance of transgenic cv. Bobwhite MPB26RH events that had randomly integrated T-DNA expressing the AHAS (P197S) mutation, which confers tolerance to sulfonylurea selection agents.
The basal tolerance of the wild-type donor wheat line to sulfometuron methyl at the callus induction stage was determined as follows: scutella of immature zygotic embryos were isolated, as previously described in Example 4, and placed in 10 cm petri dishes containing CIM medium supplemented with 0, 100, 500, 1000, 1500 and 2000 nM sulfometuron methyl, respectively. Twenty scutella were placed in each petri dish. A total of 60 scutella were tested at each sulfometuron methyl concentration. After incubation at 24° C. in the dark for 4 weeks, the amount of somatic embryogenic callus formation (SEC) at each sulfometuron methyl concentration was recorded. […]

[5] = system: protoplasts of SEC-derived cell suspension culture of cv. Bobwhite MPB26RH; test: basal tolerance to BASTA of protoplast agarose bead-type cultures (calli growth); assay type: cell-based, Triticum aestivum; settings: 2 weeks
Description: BASTA® selection conditions are optimized using protoplasts derived from somatic embryogenic callus (SEC)-derived cell suspension culture of the wheat line cv. Bobwhite MPB26RH. While protoplasts derived from Bobwhite MPB26RH are non-totipotent (i.e., cannot be used to regenerate entire plants), the selection conditions established for enriching the events that express the PAT gene are expected to be transferable to any protoplast-based transformation system based on a totipotent wheat genotype. The experiments are conducted, and the basal tolerance of the wild-type donor wheat line cv. Bobwhite MPB26RH to BASTA® is established. The use of BASTA® selection conditions stronger than basal tolerance are identified and used to select for transformed cells expressing the PAT gene.
Protoplasts are isolated from an established SEC-derived cell suspension culture and used to establish agarose bead-types cultures, as described previously. The basal tolerance of wheat line cv. Bobwhite MPB26RH to BASTA® is determined by incubating the agarose bead-type cultures in media supplemented with 0, 0.5, 2.5, 5, 7.5, 10, 20, 30, 40 and 50 mg/L BASTA® and assessing the rate of calli growth after 2 weeks. The BASTA® concentrations (e.g., higher than 20 mg/L) that severely impeded calli development are optimal for enriching and selecting wheat cells having the PAT gene.

Row | SMILES | reduction of plant regeneration [1] | root formation compared to untreated controls [2] | concentrations at which root formation was severely inhibited [3] | reduction of SEC formation [4] | concentrations that severely impeded calli development [5]
1 | COC(=O)c1ccccc1S(=O)(=O)NC(=O)Nc1nc(C)cc(C)n1 [sulfometuron methyl] | about 80% | not restricted | higher than 400 nM | about 70% | 
2 | CP(=O)(O)CCC(N)C(=O)O (racemic) [BASTA, DL-Phosphinothricin] |  |  |  |  | higher than 20 mg/L
